Data on 6 molecules can be found in patent US20230330251A1, “METHODS FOR TREATING CANCERS WITH ANTIBODY DRUG CONJUGATES (ADC) THAT BIND TO 191P4D12 PROTEINS” (AGENSYS, INC., priority 2020, published 2023).

In one data set the test system is subjects. As to conditions: cited from earlier work.
The test system of a further data set is urothelial cancer. As to conditions: second line treatment; best supportive care 4.6 months; cited from earlier work.
Data set [1] can be described thus: Phase 1 study of EV: pharmacokinetics. The format is in vivo, human. As to conditions: EV dosing on Days 1, 8 and 15 of every 28-day cycle. From the text:
Based on pharmacokinetic data from the phase 1 study, the half-life of EV is ˜1-2 days. […] Minimal (<50%) intra-cycle accumulation of MMAE was observed. It is anticipated that the dosing schedule in the study will maintain ADC exposures over each 28-day cycle, contributing to a favorable balance of activity and safety, as observed in the phase 1 trial.

For data set [2], the system named is locally advanced or metastatic urothelial cancer. The settings on record: second line, KEYNOTE-045; cited from earlier work.
The next data set has as its target PD-1 (Homo sapiens, UniProt Q15116). The settings on record: cited from earlier work.
Data set [3] concerns acute myeloid leukemia (AML) at relapse. The settings on record: administered alone; cited from earlier work.

Non-standard residues stand in square brackets, D forms with d. Residues, ends and D or L forms follow the SMILES beside them. *: point of attachment. Dolaproine = CO[C@@H]([C@@H]1CCCN1)[C@@H](C)C(=O)O; Dil = CC[C@H](C)[C@H](NC)[C@@H](CC(=O)O)OC; X1 = C[C@@H](N*)[C@@H](O)c1ccccc1; NMeV = CN[C@H](C(=O)O)C(C)C

PD-1, sequence (Q15116 25-288): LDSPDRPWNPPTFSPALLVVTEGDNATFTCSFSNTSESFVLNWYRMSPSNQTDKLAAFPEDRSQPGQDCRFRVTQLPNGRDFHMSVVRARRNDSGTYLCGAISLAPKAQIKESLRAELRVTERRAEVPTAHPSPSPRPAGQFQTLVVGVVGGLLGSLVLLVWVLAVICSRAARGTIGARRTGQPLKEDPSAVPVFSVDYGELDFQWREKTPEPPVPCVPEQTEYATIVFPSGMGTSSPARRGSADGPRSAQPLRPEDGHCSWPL

As for `CC(=O)O[C@@]12CO[C@@H]1C[C@H](O)[C@@]1(C)C(=O)[C@H](O)C3=C(C)[C@@H](OC(=O)[C@H](O)[C@@H](NC(=O)OC(C)(C)C)c4ccccc4)C[C@@](O)([C@@H](OC(=O)c4ccccc4)[C@H]21)C3(C)C` [Docetaxel, docetaxel], in the data set on subjects (in vivo), the “fluid retention following docetaxel therapy” value was “Severe fluid retention has been reported”.

Turning to `CC[C@]12C=CCN3CC[C@@]4(c5cc([C@@]6(C(=O)OC)C[C@@H]7C[C@@H](C(C)(F)F)CN(Cc8c6[nH]c6ccccc86)C7)c(OC)cc5N(C)[C@H]4[C@@](O)(C(=O)OC)[C@@H]1OC(C)=O)[C@@H]32` [Vinflunine, vinflunine], in the data set with subjects (after administration of vinflunine), the “Cases of Posterior Reversible Encephalopathy Syndrome (PRES)” value is recorded as “have been observed”. For the same molecule, in the data set on urothelial cancer, the “Median OS” value is reported as 6.9 months.

Take `CC[C@H](C)[C@@H]([C@@H](CC(=O)N1CCC[C@H]1[C@H](OC)[C@@H](C)C(=O)N[C@H](C)[C@@H](O)c1ccccc1)OC)N(C)C(=O)[C@@H](NC(=O)[C@@H](NC)C(C)C)C(C)C` [MMAE, monomethyl auristatin E, reference compound] (H-[NMeV]V[Dil][Dolaproine]-X1): the “intra-cycle accumulation of MMAE” value in data set [1] was < 50%.

With “pembrolizumab: humanized monoclonal IgG4 anti-PD-1 antibody”, the “Median OS” value in data set [2] is recorded as 10.3 months.

Regarding “BGB-A317: anti-PD-1 monoclonal antibody in which the ability to bind Fc gamma receptor I is engineered out”, the “binding to PD-1” value with PD-1 is “high affinity”.

Turning to “CT-011: anti-PD-1 antibody, a humanized antibody”, the “response in acute myeloid leukemia (AML) at relapse” value in data set [3] is “failed to show response”.
